According to patent publication US9963496B2, “Stable glucagon analogues and use for treatment of hypoglycaemia” (Novo Nordisk A/S, priority 2014, dated 2018):
*1 amine or outer side, *2 acyl side, *3 side chain or, on linkers, in order; H or OH if unused. Where a SMILES comes first, the peptide text is derived from it. Side-chain parts run from the residue outwards. The star is where a group is joined. γGlu = O=C(O)[C@H](CCC(=O)[*:2])N[*:1]; Desaminohistidyl = O=C(CCc1c[nH]cn1)*

Key:
physchem = format: physicochemical; settings: pH 7.5
Method in brief: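 Peptide at 250 μM in 10 mM HEPES pH 7.5 with 1 μM Thioflavin T, incubated at 37° C with 960 rpm orbital shaking. ThT fluorescence (ex 444/em 485 nm) read every 20 min; lag-time (t0−2τ) and kapp (1/τ) from curve fit. Recovery is post-assay supernatant peptide by RP-HPLC as % of initial.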

human glucagon receptor = target: T1, human glucagon receptor (Homo sapiens, UniProt P47871); assay: Assay (II)(b): glucagon receptor binding, 125I-glucagon displacement on isolated membranes (SPA); settings: displacement of 125I-glucagon, membranes of BHK cells with human glucagon receptor, 2 h at 25° C.; read-out: IC50 hGlucagonR
T1 construct: expressed in transfected cells; host or cells: BHK cells, clone BHK hGCGR A3*25; isolated membranes
T1 sequence (P47871 26-477): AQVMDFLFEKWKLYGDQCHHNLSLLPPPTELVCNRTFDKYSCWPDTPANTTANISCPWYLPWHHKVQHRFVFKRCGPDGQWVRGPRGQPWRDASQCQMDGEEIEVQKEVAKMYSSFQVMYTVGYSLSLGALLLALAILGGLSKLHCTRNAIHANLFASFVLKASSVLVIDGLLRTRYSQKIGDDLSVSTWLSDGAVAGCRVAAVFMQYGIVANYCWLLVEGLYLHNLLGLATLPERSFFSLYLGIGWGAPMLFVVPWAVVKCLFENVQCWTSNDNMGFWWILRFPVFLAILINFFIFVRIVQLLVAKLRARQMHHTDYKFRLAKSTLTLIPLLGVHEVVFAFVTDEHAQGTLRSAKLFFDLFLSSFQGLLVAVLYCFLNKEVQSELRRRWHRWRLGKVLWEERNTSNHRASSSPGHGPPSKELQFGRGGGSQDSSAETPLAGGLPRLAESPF
Protocol: (b) Glucagon Receptor Binding
The purpose of this assay was to test the in vitro receptor binding activity of the glucagon derivatives of the invention. The receptor binding activity is a measure of affinity of a derivative for the human glucagon receptor.
The receptor binding of each compound to the human glucagon receptor was measured in a displacement binding assay. In this type of assay a labelled ligand (in this case 125I-glucagon) is bound to the receptor. Each derivative is added in a series of concentrations to isolated membranes containing the human glucagon receptor and displacement of the labelled ligand is monitored. The receptor binding is reported as the concentration at which half of the labelled ligand is displaced from the receptor, the IC50 value.
HME buffer consisted of 25 mM HEPES, 2 mM MgCl2 and 1 mM EDTA, and pH was adjusted to 7.4. Binding buffer consisted of 50 mM HEPES supplemented with 5 mM MgCl2, 1 mM CaCl2, 0.02% Tween 20 and 0.1% Ovalbumin, and pH was adjusted to 7.4.
The cells used in this assay (clone BHK hGCGR A3*25) were BHK cells stable transfected with an expression plasmid containing the cDNA encoding the human glucagon receptor.
The cells were grown at 5% CO2 in DMEM, 10% fetal calf serum, 1% Pen/Strep (Penicillin/Streptomycin) and 1.0 mg/mL of the selection marker G418. To make a membrane preparation the cells were grown to approximately 80% confluence. The cells were washed twice in phosphate-buffered saline and harvested. The cells were pelleted using a brief centrifugation and the cell pellet was kept on ice. The cells were lysed by adding approx. 5 mL HME buffer, mix by pipetting and snap freeze in liquid nitrogen. The cell lysate was quickly thawed and HME buffer added to 10 mL. The cell pellet was homogenised with an ULTRA-THURRAX dispersing instrument for 20-30 seconds. The homogenate was centrifuged at 20,000×G, 4° C. for 10 minutes. The pellet was resuspended (homogenised) in 1-2 mL HME buffer. The protein concentration was determined. The membranes were aliquoted and snap frozen in liquid nitrogen and stored at minus 80° C.
• 1. For the receptor binding assay 50 μl of the assay buffer was added to each well of an assay plate. • 2. Test compounds were serially diluted to give the following concentrations: 8×10 EE-7 M, 8×10 EE-8 M, 8×10 EE-9 M, 8×10 EE-10 M, 8×10 EE-11 M, 8×10 EE-12 M and 8×10 EE-13 M. Twenty-five μl were added to appropriate wells in the assay plate. • 3. Cell membrane aliquots were thawed and diluted to their working concentration. Fifty μl were added to each well in the assay plate. • 4. WGA SPA beads were suspended in assay buffer at 20 mg/mL. The suspension was diluted to 10 mg/mL in assay buffer just prior to addition to the assay plate. Fifty μl were added to each well in the assay plate. • 5. The incubation was started by adding 25 μl of 480 pM solution of [125I]-glucagon to each well of the assay plate. A 25 μl aliquot was reserved for measuring total counts/well. • 6. The assay plate was incubated for 2 h at 25° C. • 7. The assay plate was centrifuged for 10 min at 1500 rpm. • 8. The assay plate was read in a Packard TopCount NXT instrument. Calculations
The data from the TopCount instrument were transferred to GraphPad Prism software. The software averaged the values for the replicates and performed a non-linear regression.

| SMILES | recovery at 250 μM (physchem) | IC50 (human glucagon receptor) |
| --- | --- | --- |
| CC(=O)N[C@@H](CCC(=O)N[C@@H](CCC(=O)N[C@@H](CCC(=O)N[C@@H](CCC(=O)NCCCC[C@H](NC(=O)[C@@H](NC(=O)[C@H](Cc1ccccc1)NC(=O)[C@H](CCC(=O)O)NC(=O)[C@H](CCC(N)=O)NC(=O)[C@H](C)NC(=O)[C@H](CCCNC(=N)N)NC(=O)[C@H](CCCNC(=N)N)NC(=O)[C@H](CO)NC(=O)[C@H](CCC(=O)O)NC(=O)[C@H](CC(C)C)NC(=O)[C@H](Cc1ccc(O)cc1)NC(=O)[C@H](CCCCN)NC(=O)[C@H](CO)NC(=O)[C@H](Cc1ccc(O)cc1)NC(=O)[C@H](CC(=O)O)NC(=O)[C@H](CO)NC(=O)[C@@H](NC(=O)[C@H](Cc1ccccc1)NC(=O)[C@@H](NC(=O)CNC(=O)[C@H](Cc1c[nH]cn1)NC(=O)[C@H](CO)NC(=O)CCc1c[nH]cn1)[C@@H](C)O)[C@@H](C)O)C(C)C)C(=O)N[C@@H](Cc1c[nH]c2ccccc12)C(=O)N[C@@H](CC(C)C)C(=O)N[C@@H](CC(C)C)C(=O)N[C@@H](CO)C(=O)N[C@H](C(=O)O)[C@@H](C)O)C(=O)O)C(=O)O)C(=O)O)C(=O)O [Example 6, N^ϵ24-[(4S)-4-[[(4S)-4-[[(4S)-4-[[(4S)-4-acetamido-4-carboxybutanoyl]amino]-4-carboxybutanoyl]amino]-4-carboxybutanoyl]amino]-4-carboxybutanoyl]-[Imp1, His3, Glu15, Glu21, Lys24, Leu27, Ser28]-Glucagon] (Desaminohistidyl-SHGTFTSDYSKYLESRRAQEFVK([γGlu-γGlu-γGlu-γGlu-Ac])WLLST-OH) | 101% | 1.8 nM |
| CC(=O)N[C@@H](CCC(=O)N[C@@H](CCC(=O)N[C@@H](CCC(=O)N[C@@H](CCC(=O)NCCCC[C@H](NC(=O)[C@@H](NC(=O)[C@H](Cc1ccccc1)NC(=O)[C@H](CC(=O)O)NC(=O)[C@H](CCC(N)=O)NC(=O)[C@H](C)NC(=O)[C@H](CCCNC(=N)N)NC(=O)[C@H](CCCNC(=N)N)NC(=O)[C@H](CC(C)C)NC(=O)[C@H](CC(=O)O)NC(=O)[C@H](CC(C)C)NC(=O)[C@H](Cc1ccc(O)cc1)NC(=O)[C@H](CCCCN)NC(=O)[C@H](CO)NC(=O)[C@H](Cc1ccc(O)cc1)NC(=O)[C@H](CC(=O)O)NC(=O)[C@H](CO)NC(=O)[C@@H](NC(=O)[C@H](Cc1ccccc1)NC(=O)[C@@H](NC(=O)CNC(=O)[C@H](Cc1c[nH]cn1)NC(=O)[C@H](CO)NC(=O)CCc1c[nH]cn1)[C@@H](C)O)[C@@H](C)O)C(C)C)C(=O)N[C@@H](Cc1c[nH]c2ccccc12)C(=O)N[C@@H](CC(C)C)C(=O)N[C@@H](CC(C)C)C(=O)N[C@@H](CO)C(=O)N[C@H](C(=O)O)[C@@H](C)O)C(=O)O)C(=O)O)C(=O)O)C(=O)O [Example 9, N^ϵ24-[(4S)-4-[[(4S)-4-[[(4S)-4-[[(4S)-4-acetamido-4-carboxybutanoyl]amino]-4-carboxybutanoyl]amino]-4-carboxybutanoyl]amino]-4-carboxybutanoyl]-[Imp1, His3, Leu16, Lys24, Leu27, Ser28]-Glucagon] (Desaminohistidyl-SHGTFTSDYSKYLDLRRAQDFVK([γGlu-γGlu-γGlu-γGlu-Ac])WLLST-OH) | 100% | 0.5 nM |
